Data taken from article PMC2658777, “Prodrugs of Fluoro-Substituted Benzoates of EGC as Tumor Cellular Proteasome Inhibitors and Apoptosis Inducers” (International Journal of Molecular Sciences, 2008).

Columns and labels:
[1] = molecular target: T1, purified rabbit 20S proteasome (chymotrypsin-like activity) (Oryctolagus cuniculus, UniProt G1T4Q9); test: Inhibition of the chymotrypsin-like activity of a purified 20S proteasome; format: biochemical; conditions: fluorogenic substrate, 2 h incubation
T1 construct: purchased Boston Biochem
T1 sequence (G1T4Q9 1-263): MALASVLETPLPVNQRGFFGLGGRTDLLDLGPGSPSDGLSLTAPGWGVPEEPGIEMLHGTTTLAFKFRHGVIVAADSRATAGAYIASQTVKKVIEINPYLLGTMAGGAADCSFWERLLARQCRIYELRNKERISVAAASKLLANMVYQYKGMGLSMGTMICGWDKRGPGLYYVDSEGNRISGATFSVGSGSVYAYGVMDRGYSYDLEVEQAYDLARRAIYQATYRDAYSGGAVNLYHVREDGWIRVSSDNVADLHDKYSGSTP
Experimental: We first tested the effect of these compounds on inhibiting the chymotrypsin-like activity of a purified 20S proteasome using purified EGCG as a positive control. Each of these compounds was incubated with a purified rabbit 20S proteasome and a fluorogenic substrate for chymotrypsin-like activity for 2 h. The half-maximal inhibitory concentration or IC50 was then determined.
Highly purified (-)-EGCG and dimethyl sulfoxide (DMSO) were purchased from Sigma-Aldrich. Purified 20S proteasome (rabbit) was purchased from Boston Biochem. Fluorogenic peptide substrate Suc-Leu-Leu-Val-Tyr-AMC (for the proteasomal chymotrypsin-like activity) was obtained from Calbiochem. Polyclonal antibody to ubiquitin, IκB-α̣ monoclonal anti-actin, anti-goat, anti-rabbit, and anti-mouse IgG-horseradish peroxidase were obtained from Santa Cruz Biotechnology Inc. Mouse monoclonal anitbody against human poly(ADP-ribose) polymerase (PARP) was purchased from Biomol International LP (Plymouth Meeting, PA). RPMI 1640, Penicillin and streptomycin were purchased from Invitrogen.

[2] = design: method as in PMID 17477351; conditions: in vitro; cited from earlier work
[3] = system: proteasomal chymotrypsin (CT)-like activity in Jurkat T cells; test: Cellular proteasomal chymotrypsin-like activity in extracts of treated cells; format: cell-based, human
Experimental: (§1) To study whether the induction of cell death by Pro-F-EGCG4 was due to its proteasome-inhibitory and apoptosis-inducing activities, Jurkat T cells were treated with 50 μM of Pro-F-EGCG4 and Pro-EGCG (1) as a control for 4, 8 and 24 h, followed by measurement of proteasome inhibition and apoptotic cell death. […] Previously, we reported that the p56 is an ubiquitinated form of IκB-α protein as a marker of proteasome inhibition, as verified by the immunoprecipitation-Western blot assay. […] Consistently, PARP cleavage fragment p85 was detected in Jurkat T cells treated with Pro-F-EGCG4 in a time-dependent manner (Fig. 3B). A p65 PARP fragment was also detected in cells treated with Pro-F-EGCG4 (Fig. 3B), indicating calpain activation occurred as well [14]. Apoptotic morphological changes were observed after 4 hours of treatment with Pro-F-EGCG4 (data not shown).
We then performed a dose-dependent experiment. Jurkat T cells were treated with Pro-F-EGCG4 or Pro-EGCG (1) at 10, 25, or 50 μM for 24 h, followed by measurement of proteasome inhibition and apoptotic cell death.
(§2) Human leukemia Jurkat T cells were cultured in RPMI 1640 medium supplemented with 10% fetal calf serum, 100 units/mL of penicillin, and 100 μg/mL of streptomycin. Cells were maintained at 37 °C in a humidified incubator with an atmosphere of 5% CO2. Jurkat T cells were treated by selected compounds at various concentrations for indicated hours (see figure legends for details), and a whole-cell extract was then prepared as described previously. Briefly, cells were harvested, washed with PBS, and homogenized in a lysis buffer (50 mM, Tris-HCl, pH 8.0, 150 mM NaCl, 0.5% NP-40, 0.5 mM penylmethylsulfonyl fluoride, and 0.5 mM dithiothreitol) at 4 °C. Afterwards, the lysates were centrifuged at 12,000 × g for 15 min at 4 °C and the supernatants collected as whole-cell extracts.
Human leukemia Jurkat T cells were treated with each compound at indicated concentration for indicated hours (see the figure legends for details), harvested, and lysed as described previously. Whole cell extracts were prepared as detailed in section 3.4, aliquoted and kept at −80 °C. One of the aliquots was used for determination of protein concentration. After that, whole cell extracts (10 μg) from each preparation were incubated with Suc-Leu-Leu-Val-Tyr-AMC (20 μM) fluorogenic substrate at 37°C in 100 μl of assay buffer (50 mM Tris-HCL, pH 7.5) for 2 h. After incubation, production of hydrolyzed 7-amino-4-methylcoumarin (AMC) groups was measured using a Victor^3 Multilabel Counter with an excitation filter of 380 nm and an emission filter of 460 nm (PerkinElmer, Boston, MA, USA).

[4] = system: human breast cancer xenografts; design: method as in PMID 17483343; conditions: human breast cancer xenografts in mice; cited from earlier work
Jurkat T cells = test: Western blot of ubiquitinated IκB-α (p56), ubiquitinated proteins and PARP cleavage; format: cell-based, human; conditions: for p56 IκB-α (ubiquitinated form), Western blot: 50 μM; for accumulation of ubiquitinated proteins, Western blot: Jurkat T cells, 10, 25 or 50 μM
Experimental: as §1, §2
Analysis of IκB-α, PARP, and ubiquitinated proteins was performed using monoclonal or polyclonal antibodies, according to previously reported protocols.

[5] = system: Human leukemia Jurkat T cells; test: Trypan blue dye exclusion cell death assay; format: cell-based; conditions: 50 μM, 24 h
Experimental: We first tested whether these Pro-F-EGCGs could induce cell death in tumor cells. Human leukemia Jurkat T cells were treated with 50 μM of each analog for 24 h, followed by Trypan-blue exclusion assay. Blue cells and cells with apoptosis-associated morphological changes (shrunken, blebbing, etc) were scored as dead cells. Pro-EGCG (1) and DMSO were used as controls.
The Trypan blue dye exclusion assay was performed by mixing 20 μL of cell suspension with 20 μL of 0.4% Trypan blue dye before injecting into a hemocytometer and counting. The number of cells that absorbed the dye and those that exclude the dye were counted, from which percentage of nonviable cell number over the total cell number was calculated.
as §2

[6] = system: caspase-3/7 activities in Jurkat T cells; test: Caspase-3/7 activity in extracts of treated cells; format: cell-based, human; conditions: 50 μM, 24 h (dose-dependent experiment)
Experimental: as §1
Human leukemia Jurkat T cells were cultured in RPMI 1640 medium supplemented with 10% fetal calf serum, 100 units/mL of penicillin, and 100 μg/mL of streptomycin. Cells were maintained at 37 °C in a humidified incubator with an atmosphere of 5% CO2. […]
Cells were treated with each compound at indicated concentration for indicated hours, harvested, and lysed as described previously. Ac-DEVD-AMC (40 μM) was then incubated with the prepared cell lysates for 2 h and the caspase-3 activity was measured as described previously.

[7] = Jurkat T cells, 50 μM, 4, 8 and 24 h
[8] = Jurkat T cells, 10, 25 or 50 μM, 24 h

## O=C(O[C@@H]1Cc2c(O)cc(O)cc2O[C@@H]1c1cc(O)c(O)c(O)c1)c1cc(O)c(O)c(O)c1 [(-)-EGCG, (-)-epigallocatechin-3-gallate, reference compound]
[1]
  IC50: 680 nM

## O=C(O[C@@H]1Cc2c(O)cc(O)cc2O[C@@H]1c1cc(O)c(O)c(O)c1)c1ccccc1F [F-EGCG1, (-)-(2R, 3R)-5,7-dihydroxy-2-(3,4,5-trihydroxyphenyl)chroman-3-yl 2-fluorobenzoate]
[1]
  IC50: 1250 nM

## O=C(O[C@@H]1Cc2c(O)cc(O)cc2O[C@@H]1c1cc(O)c(O)c(O)c1)c1cccc(F)c1 [F-EGCG2]
[1]
  IC50: 840 nM

## O=C(O[C@@H]1Cc2c(O)cc(O)cc2O[C@@H]1c1cc(O)c(O)c(O)c1)c1ccc(F)cc1 [F-EGCG3]
[1]
  IC50: 1900 nM

## O=C(O[C@@H]1Cc2c(O)cc(O)cc2O[C@@H]1c1cc(O)c(O)c(O)c1)c1ccc(F)c(F)c1 [F-EGCG4]
[1]
  IC50: 650 nM

## CC(=O)Oc1cc(OC(C)=O)c2c(c1)O[C@H](c1cc(OC(C)=O)c(OC(C)=O)c(OC(C)=O)c1)[C@H](OC(=O)c1cc(OC(C)=O)c(OC(C)=O)c(OC(C)=O)c1)C2 [Pro-EGCG (1), reference compound]
[2]
  cellular permeability and stability compared with natural EGCG: significantly enhanced
[3]; [7]
  proteasomal CT-like activity in treated cells: decrease in the level of the proteasomal CT-like activity in a time-dependent manner
[3]; [8]
  proteasomal CT-like activity in treated cells: showed inhibition
[4]
  anti-tumor activity compared with natural EGCG: greater anti-tumor activity
Jurkat T cells; Jurkat T cells, all the time points (4, 8, 24 h)
  p56 IκB-α (ubiquitinated form), Western blot: increased level
Jurkat T cells; 24 h
  accumulation of ubiquitinated proteins, Western blot: accumulation of ubiquitinated proteins
[5]
  cell death (dead cells over total cell population): ~ 70%
[6]
  caspase 3/7 activity, induction: 6 fold

## CC(=O)Oc1cc(OC(C)=O)c2c(c1)O[C@H](c1cc(OC(C)=O)c(OC(C)=O)c(OC(C)=O)c1)[C@H](OC(=O)c1ccccc1F)C2 [Pro-F-EGCG1, (-)-(2R, 3R)-5,7-Diacetoxy-2-(3,4,5-triacetoxyphenyl)chroman-3-yl 2-fluorobenzoate]
[5]
  cell death (dead cells over total cell population): 44%

## CC(=O)Oc1cc(OC(C)=O)c2c(c1)O[C@H](c1cc(OC(C)=O)c(OC(C)=O)c(OC(C)=O)c1)[C@H](OC(=O)c1cccc(F)c1)C2 [Pro-F-EGCG2, (-)-(2R, 3R)-5,7-Diacetoxy-2-(3,4,5-triacetoxyphenyl)chroman-3-yl 3-fluorobenzoate]
[5]
  cell death (dead cells over total cell population): 90%

## CC(=O)Oc1cc(OC(C)=O)c2c(c1)O[C@H](c1cc(OC(C)=O)c(OC(C)=O)c(OC(C)=O)c1)[C@H](OC(=O)c1ccc(F)cc1)C2 [Pro-F-EGCG3, (-)-(2R, 3R)-5,7-Diacetoxy-2-(3,4,5-triacetoxyphenyl)chroman-3-yl 4-fluorobenzoate]
[5]
  cell death (dead cells over total cell population): 30%

## CC(=O)Oc1cc(OC(C)=O)c2c(c1)O[C@H](c1cc(OC(C)=O)c(OC(C)=O)c(OC(C)=O)c1)[C@H](OC(=O)c1ccc(F)c(F)c1)C2 [Pro-F-EGCG4, (-)-(2R,3R)-5,7-Diacetoxy-2-(3,4,5-triacetoxyphenyl)chroman-3-yl 3,4-difluorobenzoate]
[3]; [7]
  proteasomal CT-like activity in treated cells: decreased level
[3]; [8]
  proteasomal CT-like activity in treated cells: inhibited the proteasomal CT-like activity in a dose-dependent manner
Jurkat T cells; [7]
  PARP cleavage fragment p85, Western blot: detected
Jurkat T cells; Jurkat T cells, 4 or 8 h
  p56 IκB-α (ubiquitinated form), Western blot: induced the appearance
Jurkat T cells; Jurkat T cells, 24 h
  p56 IκB-α (ubiquitinated form), Western blot: not detected
Jurkat T cells; 24 h
  accumulation of ubiquitinated proteins, Western blot: caused accumulation of ubiquitinated proteins in a dose-dependent manner
[5]
  cell death (dead cells over total cell population): 90%
